Results on 13 compounds are retold here after ChEMBL document CHEMBL1121450, “Synthesis and antineoplastic activity of phenyl-substituted benzenesulfonylhydrazones of 2-pyridinecarboxyaldehyde 1-oxide” (1980).

Format in all cases: functional
The species entered for test [1] is Mus musculus. In words: Average change in body weight from onset to termination of drug therapy in mice bearing the L1210 Leukemia at 120 mg / kg.
Test [2] is filed under the species Mus musculus. The experiment in a line: The average survival time(days) of mice bearing the P388 Leukemia at 100 mg / kg.
The species named for test [3] is Mus musculus. In words: Average change in body weight from onset to termination of drug therapy in mice bearing the P388 Leukemia at 100 mg / kg.
For test [4], the species on record is Mus musculus. The experiment in a line: Average survival time (treated / control) x100 was calculated in mice bearing the P388 Leukemia at 100 mg / kg (Mice that survived more than 50 days).
Test [5] is filed under the species Mus musculus. In words: At the 50 day survivors of mice bearing the P388 Leukemia at 100 mg / kg (Mice that survived more than 50 days).
Test [6] is filed under the species Mus musculus. The experiment in a line: At the 50 day survivors of mice bearing the L1210 Leukemia at 120 mg / kg. Also on record: unit not given here.
The species entered for test [7] is Mus musculus. The experiment in a line: The average survival time (days) of mice bearing the L1210 Leukemia at 120 mg / kg (Mice that survived more than 50 days).
The species entered for test [8] is Mus musculus. The experiment in a line: Average survival time (treated / control) x100 was calculated in mice bearing the L1210 Leukemia at 120 mg / kg (Mice that survived more than 50 days).
Test [9] is filed under the species Mus musculus. The experiment in a line: Average survival time (treated / control) x100 was calculated in mice bearing the P388 Leukemia at 100 mg / kg.
The species entered for test [10] is Mus musculus. The experiment in a line: At the 50 day survivors of mice bearing the P388 Leukemia at 100 mg / kg. Also on record: unit not given here.
Test [11] is filed under the species Mus musculus. In words: At the 50 day survivors of mice bearing the L1210 Leukemia at 80 mg / kg.
For test [12], the species on record is Mus musculus. In words: Average change in body weight from onset to termination of drug therapy in mice bearing the L1210 Leukemia at 80 mg / kg.
Test [13] is filed under the species Mus musculus. The experiment in a line: Average survival time (treated / control) x100 was calculated in mice bearing the L1210 Leukemia at 80 mg / kg.
For test [14], the species on record is Mus musculus. The experiment in a line: The average survival time (days) of mice bearing the L1210 Leukemia at 80 mg / kg.
The species named for test [15] is Mus musculus. The experiment in a line: Average survival time (treated / control) x100 was calculated in mice bearing the L1210 Leukemia at 100 mg / kg.
The species named for test [16] is Mus musculus. The experiment in a line: At the 50 day survivors of mice bearing the L1210 Leukemia at 100 mg / kg. Also on record: unit not given here.
The species entered for test [17] is Mus musculus. The experiment in a line: Average change in body weight from onset to termination of drug therapy in mice bearing the L1210 Leukemia at 100 mg / kg.
Test [18] is filed under the species Mus musculus. The experiment in a line: The average survival time (days) of mice bearing the L1210 Leukemia at 100 mg / kg.
Test [19] is filed under the species Mus musculus. The experiment in a line: The average survival time(days) of mice bearing the P388 Leukemia at 100 mg / kg (Mice that survived more than 50 days).
The species named for test [20] is Mus musculus. The experiment in a line: Average survival time (treated / control) x100 was calculated in mice bearing the P388 Leukemia at 80 mg / kg.
Test [21] is filed under the species Mus musculus. In words: Average survival time (treated / control) x100 was calculated in mice bearing the L1210 Leukemia at 120 mg / kg.
The species named for test [22] is Mus musculus. The experiment in a line: Average change in body weight from onset to termination of drug therapy in mice bearing the P388 Leukemia at 80 mg / kg.
The species entered for test [23] is Mus musculus. The experiment in a line: At the 50 day survivors of mice bearing the P388 Leukemia at 80 mg / kg.
The species entered for test [24] is Mus musculus. The experiment in a line: The average survival time (days) of mice bearing the L1210 Leukemia at 120 mg / kg.
The species named for test [25] is Mus musculus. The experiment in a line: The average survival time(days) of mice bearing the P388 Leukemia at 80 mg / kg.
The species entered for test [26] is Mus musculus. The experiment in a line: At the 50 day survivors of mice bearing the L1210 Leukemia at 60 mg / kg.
For test [27], the species on record is Mus musculus. The experiment in a line: Average survival time (treated / control) x100 was calculated in mice bearing the L1210 Leukemia at 60 mg / kg.
The species named for test [28] is Mus musculus. The experiment in a line: Average change in body weight from onset to termination of drug therapy in mice bearing the L1210 Leukemia at 60 mg / kg.
Test [29] is filed under the species Mus musculus. In words: The average survival time (days) of mice bearing the L1210 Leukemia at 60 mg / kg.
Test [30] is filed under the species Mus musculus. The experiment in a line: The average survival time(days) of mice bearing the P388 Leukemia at 80 mg / kg (Mice that survived more than 50 days).
For test [31], the species on record is Mus musculus. In words: Average survival time (treated / control) x100 was calculated in mice bearing the P388 Leukemia at 80 mg / kg (Mice that survived more than 50 days).
For test [32], the species on record is Mus musculus. In words: Average change in body weight from onset to termination of drug therapy in mice bearing the P388 Leukemia at 120 mg / kg.
Test [33] is filed under the species Mus musculus. The experiment in a line: Average survival time (treated / control) x100 was calculated in mice bearing the P388 Leukemia at 120 mg / kg (Mice that survived more than 50 days).
The species named for test [34] is Mus musculus. The experiment in a line: Average survival time (treated / control) x100 was calculated in mice bearing the L1210 Leukemia at 100 mg / kg (Mice that survived more than 50 days).
For test [35], the species on record is Mus musculus. In words: The average survival time(days) of mice bearing the P388 Leukemia at 120 mg / kg (Mice that survived more than 50 days).
For test [36], the species on record is Mus musculus. The experiment in a line: At the 50 day survivors of mice bearing the P388 Leukemia at 120 mg / kg.
Test [37] is filed under the species Mus musculus. The experiment in a line: The average survival time (days) of mice bearing the L1210 Leukemia at 100 mg / kg (Mice that survived more than 50 days).
The species named for test [38] is Mus musculus. The experiment in a line: Average survival time (treated / control) x100 was calculated in mice bearing the L1210 Leukemia at 80 mg / kg (Mice that survived more than 50 days).
The species entered for test [39] is Mus musculus. The experiment in a line: The average survival time (days) of mice bearing the L1210 Leukemia at 80 mg / kg (Mice that survived more than 50 days).

What is called T/C is the result in the treated group divided by that in the control group, in per cent.

With `Cc1cc(C)c(S(=O)(=O)N/N=C/c2cccc[n+]2[O-])c(C)c1`, the “Average change in body weight” value in test [1] is -1%; in test [3], -9.3%. For the same compound, the values for the Average survival in test [2] and in test [7] were 17 days and 11.3 days, respectively. The T/C is given as 180% in test [4] and 126% in [8]. The Survivors in test [5] and in test [6] was 40 each time.
Turning to `O=C(O)c1cc(S(=O)(=O)N/N=C/c2cccc[n+]2[O-])ccc1O`, the T/C is given as 147% in [9] and 156% in test [13]. For the same compound, the Survivors in test [10] and in test [11] was 0 each time. Moreover, the Average survival came to 13.8 days in [2] and 14 days in [14]. The figures for the “Average change in body weight” value in [3] and in test [12] were -9.8% and 0%, respectively.
With `CN(C)c1ccc(S(=O)(=O)N/N=C/c2cccc[n+]2[O-])cc1`, the values for the T/C in [9] and in [15] were 174% and 187%, respectively. Also, the Survivors in test [10] and in test [16] was 0 throughout. The Average survival stood at 16.4 days in test [2] and 16.8 days in [18]. Also, the results for the “Average change in body weight” value in test [3] and in [17] were -4.4% and -3.2%, respectively.
Take `Cc1ccc(S(=O)(=O)N/N=C/c2cccc[n+]2[O-])cc1C(=O)O`: the Survivors was found to be 40 in [10] and 0 in [16]. The Average survival in test [19] came out at 9.3 days; in test [18], 11.8 days. Further, the T/C in test [15] is on record as 131%; in test [4] it was 99%. The results for the “Average change in body weight” value in test [3] and in test [17] were -5.9% and -5%, respectively.
Regarding `CC(=O)Nc1ccc(S(=O)(=O)N/N=C/c2cccc[n+]2[O-])cc1`, the T/C in [20] was 157%; in test [21], 169%. Also, the “Average change in body weight” value is 0% in [1] and -4.4% in test [22]. Also, the Survivors in [23] and in test [6] was 0 throughout. Further, the Average survival worked out at 15.2 days in [24] and 14.8 days in [25].
Take `O=S(=O)(N/N=C/c1cccc[n+]1[O-])c1ccc(O)cc1`: the T/C in [9] is 170%; in test [15], 136%. Besides, the Survivors in [10] and in test [16] was 0 each time. Further, the figures for the Average survival in test [2] and in test [18] were 16 days and 12.2 days, respectively. The entries for the “Average change in body weight” value in test [3] and in [17] were -15.4% and -0.8%, respectively.
In the case of `O=C(O)c1ccc(S(=O)(=O)N/N=C/c2cccc[n+]2[O-])cc1`, the T/C in test [9] is recorded as 147%; in test [27], 120%. Moreover, the Survivors in test [26] and in test [10] was 0 in each case. Besides, the Average survival in [2] was found to be 13.8 days; in [29], 10.8 days. The results for the “Average change in body weight” value in [3] and in [28] were -4.1% and 3.4%, respectively.
Consider `COc1ccc(C(=O)O)cc1S(=O)(=O)N/N=C/c1cccc[n+]1[O-]`, for which the Average survival worked out at 15 days in [30] and 11.6 days in test [18]. The figures for the T/C in test [15] and in [31] were 129% and 160%, respectively. The “Average change in body weight” value in test [22] is on record as -3.1%; in test [17], 8.1%. The figures for the Survivors in [23] and in test [16] were 20 and 0, respectively.
On to `O=C(O)c1cccc(S(=O)(=O)N/N=C/c2cccc[n+]2[O-])c1`, for which the values for the T/C in test [20] and in test [21] were 147% and 138%, respectively. In addition, the entries for the “Average change in body weight” value in test [1] and in test [22] were -2.4% and -6.5%, respectively. For the same compound, the Survivors in test [23] and in test [6] was 0 throughout. For the same compound, the Average survival is 12.4 days in test [24] and 13.8 days in [25].
For the compound `COc1ccc(S(=O)(=O)N/N=C/c2cccc[n+]2[O-])cc1OC`, the entries for the “Average change in body weight” value in [32] and in test [17] were -18.8% and -8.7%, respectively. Further, the T/C in [33] is on record as 122%; in test [34] it was 210%. Also, the Average survival in test [35] amounted to 11.5 days; in test [37], 19 days. The Survivors amounted to 60 in [36] and 80 in test [16].
Regarding `O=C(O)Cc1ccc(S(=O)(=O)N/N=C/c2cccc[n+]2[O-])cc1`, the values for the T/C in [9] and in test [21] were 145% and 116%, respectively. Further, the Survivors in [10] and in test [6] was 0 each time. The “Average change in body weight” value is given as 7.3% in test [1] and -5.2% in test [3]. For the same compound, the Average survival in test [2] turned out to be 13.6 days; in [24] it was 10.4 days.
In the case of `COc1ccc(S(=O)(=O)N/N=C/c2cccc[n+]2[O-])c(OC)c1`, the Survivors in test [10] and in test [11] was 20 each time. The T/C in test [38] is 130%; in [4] it was 226%. In addition, the results for the Average survival in test [19] and in test [39] were 21.2 days and 11.7 days, respectively. Also, the “Average change in body weight” value in test [3] is recorded as -10.3%; in test [12] it was -2.5%.
Take `Cc1ccc(C(=O)O)cc1S(=O)(=O)N/N=C/c1cccc[n+]1[O-]`: the Survivors amounted to 20 in [10] and 0 in [16]. In addition, the Average survival in test [19] stood at 17 days; in [18] it was 12 days. In addition, the T/C is reported as 133% in test [15] and 180% in [4]. Moreover, the “Average change in body weight” value in test [3] is 0%; in test [17], 4.1%.
